In patent US8846933B2, “N-link hydroxamic acid derivatives useful as antibacterial agents” (Pfizer Inc., priority 2009, dated 2014) one finds AB-3167 (MIC), EC-1 (MIC) and PA-7 (MIC) data, which are given here for 26 molecules.

What all share (assay type): cell-based
What all share (details): unit assumed

For test [1], the system named is Acinetobacter baumanii/haemolyticus: Multidrug-resistant clinical isolate (AB-3167). Briefly: MIC determination (CLSI), strain AB-3167. Here is the method:
The in vitro antibacterial activity of compounds described in the Examples was evaluated by minimum inhibitory concentration (MIC) testing according to Clinical and Laboratory Standards Institute (CLSI, formerly NCCLS) guidelines. See: Clinical and Laboratory Standards Institute. Methods for Dilution Antimicrobial Susceptibility Tests for Bacteria that Grow Aerobically; Approved Standard-Seventh Edition. CLSI document M7-A7 [ISBN 1-56238-587-9]. Clinical and Laboratory Standards Institute, 940 West Valley Road, Suite 1400, Wayne, Pa. 19087-1898 USA, 2006; also Clinical and Laboratory Standards Institute. Performance Standards for Antimicrobial Susceptibility Testing; Eighteenth Informational Supplement. CLSI document M100-S18 [ISBN1-56238-653-0].Clinical and Laboratory Standards Institute.
The following bacterial strains were used in these MIC determinations:
2) Acinetobacter baumanii/haemolyticus: Multidrug-resistant clinical isolate labeled as AB-3167 in Tables 4 and 5;

The subject of test [2] is Escherichia coli EC-1: VOGEL, mouse virulent. Briefly: MIC determination (CLSI), strain EC-1. The essentials:
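The mouse-virulent VOGEL isolate of E. coli, EC-1, served as test organism. Minimum inhibitory concentration was measured by CLSI dilution methodology (M7-A7; M100-S18 standards).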

For test [3], the system named is Pseudomonas aeruginosa UI-18: Wild-type (PA-7). Briefly: MIC determination (CLSI), strain PA-7. The essentials: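 Strain tested was P. aeruginosa UI-18, a wild-type isolate labelled PA-7. Minimum inhibitory concentrations followed CLSI dilution methodology for aerobically growing bacteria (M7-A7, M100-S18).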
Where [4] appears, read: strain EC-1, generated in the same manner as in Table 4.
The mark [5] stands for this setting: strain PA-7, generated in the same manner as in Table 4.

Molecules are shown by their SMILES. Where only a bound is given, the exact number is not on record here.

In turn, `C[C@@](CCn1ccc(-c2ccccc2)c(F)c1=O)(C(=O)NO)S(C)(=O)=O` [Example 55, (2R)-4-(3-fluoro-2-oxo-4-phenylpyridin-1(2H)-yl)-N-hydroxy-2-methyl-2-(methylsulfonyl)butanamide] yielded an AB-3167 (MIC) in test [1] of more than 64 µg/mL. In test [2] (Escherichia coli EC-1, VOGEL, mouse virulent), this molecule displayed an EC-1 (MIC) of 8 µg/mL. This molecule also gave a PA-7 (MIC) in test [3] (Pseudomonas aeruginosa UI-18, wild-type) of 1 µg/mL.

`COc1ccnc2ccc(-c3ccn(CC[C@](C)(C(=O)NO)S(C)(=O)=O)c(=O)c3)cc12` [Example 482] came in with an EC-1 (MIC) in test [2] (strain EC-1) of more than 64 µg/mL. The same molecule gave a PA-7 (MIC) in test [3] (strain PA-7) of more than 64 µg/mL.

As to `CC(CCn1ccc(-c2ccc(OCCCN3CCS(=O)(=O)CC3)cc2)cc1=O)(C(=O)NO)S(C)(=O)=O` (centres unmarked) [Example 82, 4-[4-{4-[3-(1,1-dioxidothiomorpholin-4-yl)propoxy]phenyl}-2-oxopyridin-1(2H)-yl]-N-hydroxy-2-methyl-2-(methylsulfonyl)butanamide], in test [2] (setting [4]), the EC-1 (MIC) is 8 µg/mL. For the same molecule, the PA-7 (MIC) in test [3] (setting [5]) was 32 µg/mL.

`COc1cccc(-c2ccn(CCC(C)(C(=O)NO)S(C)(=O)=O)c(=O)c2)c1F` (centres unmarked) [Example 90]: the EC-1 (MIC) in test [2] (setting [4]) worked out at 0.5 µg/mL. In test [3] (setting [5]), the PA-7 (MIC) turned out to be 2 µg/mL.

Take `CC(CCn1ccc(-c2ccc(-c3ccccc3)c(F)c2)cc1=O)(C(=O)NO)S(C)(=O)=O` (centres unmarked) [Example 197, 4-[4-(2-fluorobiphenyl-4-yl)-2-oxopyridin-1(2H)-yl]-N-hydroxy-2-methyl-2-(methylsulfonyl)butanamide]: in test [2] (strain EC-1), the EC-1 (MIC) stood at 0.25 µg/mL. Moreover, in test [3] (strain PA-7), the PA-7 (MIC) amounted to 2 µg/mL.

`COc1cc(-c2ccn(CCC(C)(C(=O)NO)S(C)(=O)=O)c(=O)c2)ccc1F` (centres unmarked) [Example 208, 4-[4-(4-fluoro-3-methoxyphenyl)-2-oxopyridin-1(2H)-yl]-N-hydroxy-2-methyl-2-(methylsulfonyl)butanamide]: the EC-1 (MIC) in test [2] (strain EC-1) turned out to be 32 µg/mL. Besides, the PA-7 (MIC) in test [3] (strain PA-7) is 16 µg/mL.

With `Cc1cc(-c2ccn(CCC(C)(C(=O)NO)S(C)(=O)=O)c(=O)c2)ccc1OCCCO` (centres unmarked) [Example 248, N-hydroxy-4-{4-[4-(3-hydroxypropoxy)-3-methylphenyl]-2-oxopyridin-1(2H)-yl}-2-methyl-2-(methylsulfonyl)butanamide], the EC-1 (MIC) in test [2] (strain EC-1) was 2 µg/mL. This molecule displayed a PA-7 (MIC) in test [3] (strain PA-7) of 4 µg/mL.

As for `Cc1cccc(-c2ccn(CCC(C)(C(=O)NO)S(C)(=O)=O)c(=O)c2)c1F` (centres unmarked) [Example 264, 4-[4-(2-fluoro-3-methylphenyl)-2-oxopyridin-1(2H)-yl]-N-hydroxy-2-methyl-2-(methylsulfonyl)butanamide], in test [2] (strain EC-1), the EC-1 (MIC) amounted to 0.5 µg/mL. This molecule showed a PA-7 (MIC) in test [3] (strain PA-7) of 0.5 µg/mL.

`C[C@@](CCn1ccc(-c2ccc3cc(OCCO)ccc3c2)cc1=O)(C(=O)NO)S(C)(=O)=O` [Example 314, (2R)-N-hydroxy-4-{4-[6-(2-hydroxyethoxy)-2-naphthyl]-2-oxopyridin-1(2H)-yl}-2-methyl-2-(methylsulfonyl)butanamide]: in test [2] (strain EC-1), the EC-1 (MIC) turned out to be 0.5 µg/mL. For the same molecule, the PA-7 (MIC) in test [3] (strain PA-7) was 1 µg/mL.

In test [2] (strain EC-1), `CCOc1ncc(-c2ccn(CC[C@](C)(C(=O)NO)S(C)(=O)=O)c(=O)c2)cn1` [Example 404, (2R)-4-[4-(2-ethoxypyrimidin-5-yl)-2-oxopyridin-1(2H)-yl]-N-hydroxy-2-methyl-2-(methylsulfonyl)butanamide] returned an EC-1 (MIC) of more than 64 µg/mL. In test [3] (strain PA-7), this molecule yielded a PA-7 (MIC) of more than 64 µg/mL.

In test [2] (strain EC-1), `C[C@@](CCn1ccc(-c2ccc(CCC#N)cc2)cc1=O)(C(=O)NO)S(C)(=O)=O` [Example 347, (2R)-4-{4-[4-(2-cyanoethyl)phenyl]-2-oxopyridin-1(2H)-yl}-N-hydroxy-2-methyl-2-(methylsulfonyl)butanamide] returned an EC-1 (MIC) of 64 µg/mL. This molecule had a PA-7 (MIC) in test [3] (strain PA-7) of 4 µg/mL.

With `C[C@@](CCn1ccc(-c2ccc(Oc3cccnc3C#N)cc2)cc1=O)(C(=O)NO)S(C)(=O)=O` [Example 442, (2R)-4-[4-{4-[(2-cyanopyridin-3-yl)oxy]phenyl}-2-oxopyridin-1(2H)-yl]-N-hydroxy-2-methyl-2-(methylsulfonyl)butanamide], the EC-1 (MIC) in test [2] (strain EC-1) turned out to be 4 µg/mL. In addition, the PA-7 (MIC) in test [3] (strain PA-7) came to 4 µg/mL.

The molecule `C[C@@](CCn1ccc(-c2ccc(-c3ncns3)cc2)cc1=O)(C(=O)NO)S(C)(=O)=O` [Example 419, (2R)-N-hydroxy-2-methyl-2-(methylsulfonyl)-4-{2-oxo-4-[4-(1,2,4-thiadiazol-5-yl)phenyl]pyridin-1(2H)-yl}butanamide] came in with an EC-1 (MIC) in test [2] (strain EC-1) of 0.25 µg/mL. The PA-7 (MIC) in test [3] (strain PA-7) turned out to be 1 µg/mL.

As for `CC(CCn1ccc(-c2ccc3cc(O)ccc3c2)cc1=O)(C(=O)NO)S(C)(=O)=O` (centres unmarked) [Example 258, N-hydroxy-4-[4-(6-hydroxy-2-naphthyl)-2-oxopyridin-1(2H)-yl]-2-methyl-2-(methylsulfonyl)butanamide], the EC-1 (MIC) in test [2] (strain EC-1) was determined as 1 µg/mL. The PA-7 (MIC) in test [3] (strain PA-7) turned out to be 2 µg/mL.

In test [2] (strain EC-1), `COc1cccc(-c2ccn(CCC(C)(C(=O)NO)S(C)(=O)=O)c(=O)c2)c1` (centres unmarked) [Example 206, N-hydroxy-4-[4-(3-methoxyphenyl)-2-oxopyridin-1(2H)-yl]-2-methyl-2-(methylsulfonyl)butanamide] registered an EC-1 (MIC) of 4 µg/mL. This molecule showed a PA-7 (MIC) in test [3] (strain PA-7) of 4 µg/mL.

Take `CN(C)S(=O)(=O)c1ccc(-c2ccn(CCC(C)(C(=O)NO)S(C)(=O)=O)c(=O)c2)cc1` (centres unmarked) [Example 106, 4-[4-{4-[(dimethylamino)sulfonyl]phenyl}-2-oxopyridin-1(2H)-yl]-N-hydroxy-2-methyl-2-(methylsulfonyl)butanamide]: in test [2] (setting [4]), the EC-1 (MIC) was more than 64 µg/mL. Further, the PA-7 (MIC) in test [3] (setting [5]) was 64 µg/mL.

For the molecule `CC(CCn1ccc(-c2ccc(OCc3ccccn3)cc2)cc1=O)(C(=O)NO)S(C)(=O)=O` (centres unmarked) [Example 270, N-hydroxy-2-methyl-2-(methylsulfonyl)-4-{2-oxo-4-[4-(pyridin-2-ylmethoxy)phenyl]pyridin-1(2H)-yl}butanamide], in test [2] (strain EC-1), the EC-1 (MIC) was 1 µg/mL. The molecule further returned a PA-7 (MIC) in test [3] (strain PA-7) of 2 µg/mL.

Molecule `C[C@@](CCn1ccc(-c2ccc(Oc3ccccn3)cc2)cc1=O)(C(=O)NO)S(C)(=O)=O` [Example 436, (2R)-N-hydroxy-2-methyl-2-(methylsulfonyl)-4-{2-oxo-4-[4-(pyridin-2-yloxy)phenyl]pyridin-1(2H)-yl}butanamide] yielded an EC-1 (MIC) in test [2] (strain EC-1) of 0.5 µg/mL. In test [3] (strain PA-7), the PA-7 (MIC) was determined as 2 µg/mL.

The molecule `Cc1c(-c2cccc(Cl)c2Cl)ccn(CC[C@](C)(C(=O)NO)S(C)(=O)=O)c1=O` [Example 414, (2R)-4-[4-(2,3-dichlorophenyl)-3-methyl-2-oxopyridin-1(2H)-yl]-N-hydroxy-2-methyl-2-(methylsulfonyl)butanamide] gave an EC-1 (MIC) in test [2] (strain EC-1) of 2 µg/mL. In test [3] (strain PA-7), this molecule gave a PA-7 (MIC) of 8 µg/mL.

In test [2] (strain EC-1), `Cc1cc(OCCCn2cncn2)ccc1-c1ccn(CCC(C)(C(=O)NO)S(C)(=O)=O)c(=O)c1` (centres unmarked) [Example 289, N-hydroxy-2-methyl-2-(methylsulfonyl)-4-[4-{2-methyl-4-[3-(1H-1,2,4-triazol-1-yl)propoxy]phenyl}-2-oxopyridin-1(2H)-yl]butanamide] registered an EC-1 (MIC) of 32 µg/mL. The molecule further displayed a PA-7 (MIC) in test [3] (strain PA-7) of 32 µg/mL.

For `Cc1cc(C(N)=O)ccc1-c1ccn(CCC(C)(C(=O)NO)S(C)(=O)=O)c(=O)c1` (centres unmarked) [Example 113, 4-{1-[4-(hydroxyamino)-3-methyl-3-(methylsulfonyl)-4-oxobutyl]-2-oxo-1,2-dihydropyridin-4-yl}-3-methylbenzamide], the EC-1 (MIC) in test [2] (setting [4]) was more than 64 µg/mL. Besides, in test [3] (setting [5]), the PA-7 (MIC) was more than 64 µg/mL.

As for `CC(CCn1ccc(-c2ccc(OCCCCCN3CCOCC3)cc2)cc1=O)(C(=O)NO)S(C)(=O)=O` (centres unmarked) [Example 277, N-hydroxy-2-methyl-2-(methylsulfonyl)-4-[4-{4-[(5-morpholin-4-ylpentyl)oxy]phenyl}-2-oxopyridin-1(2H)-yl]butanamide], the EC-1 (MIC) in test [2] (strain EC-1) was found to be 1 µg/mL. Further, the PA-7 (MIC) in test [3] (strain PA-7) came out at 4 µg/mL.

On to `C[C@@](CCn1ccc(-c2ccc3cnc(N)cc3c2)cc1=O)(C(=O)NO)S(C)(=O)=O` [Example 485], for which the EC-1 (MIC) in test [2] (strain EC-1) was 64 µg/mL. For the same molecule, the PA-7 (MIC) in test [3] (strain PA-7) was 32 µg/mL.

For `COc1cc(OCCCCO)ccc1-c1ccn(CCC(C)(C(=O)NO)S(C)(=O)=O)c(=O)c1` (centres unmarked) [Example 245], in test [2] (strain EC-1), the EC-1 (MIC) worked out at 64 µg/mL. Moreover, the PA-7 (MIC) in test [3] (strain PA-7) is 64 µg/mL.

As for `C[C@@](CCn1ccc(-c2ccc(-n3ccnc3)cc2)cc1=O)(C(=O)NO)S(C)(=O)=O` [Example 388, (2R)-N-hydroxy-4-{4-[4-(1H-imidazol-1-yl)phenyl]-2-oxopyridin-1(2H)-yl}-2-methyl-2-(methylsulfonyl)butanamide], the EC-1 (MIC) in test [2] (strain EC-1) is 16 µg/mL. Moreover, the PA-7 (MIC) in test [3] (strain PA-7) is 16 µg/mL.

`CC(CCn1ccc(-c2ccc(OCCCN3CCC(O)CC3)cc2)cc1=O)(C(=O)NO)S(C)(=O)=O` (centres unmarked) [Example 83, N-hydroxy-4-[4-{4-[3-(4-hydroxypiperidin-1-yl)propoxy]phenyl}-2-oxopyridin-1(2H)-yl]-2-methyl-2-(methylsulfonyl)butanamide]: the EC-1 (MIC) in test [2] (setting [4]) turned out to be 32 µg/mL. Also, the PA-7 (MIC) in test [3] (setting [5]) worked out at 16 µg/mL.
